The values that follow come from patent US11813070B2, “Apparatus for measuring pressure changes in stomach” (VIPUN Medical NV, priority 2017, dated 2023).

The structures appear in SMILES notation. “Also recorded” adds a separate entry of the source.

The subject of test [1] is healthy subjects. As to the kind of experiment: Gastric emptying rate by 13C-octanoic acid breath test (GET½) after codeine or placebo. In kind it is in vivo, human. The settings on record: inflated balloon (200 ml), 60 mg codeine as syrup, single dose, n=6. How it is done: The study was designed as a randomized crossover study with 4 groups was (see schematic 14): • 20 ml balloon—placebo • 20 ml balloon—codeine • 200 ml balloon—placebo • 200 ml balloon—codeine
The volunteers received either placebo or codeine as a syrup. After positioning the balloon catheter the balloon was filled with 50 ml for 10 minutes, hereafter the balloon was inflated to 200 ml of deflated to 20 ml depending on the treatment arm. After this and in total 20 minutes after syrup ingestion 150 ml of a nutrient drink (Nutridrink, Nutricia (NL)) was directly infused into the stomach at a constant speed of 75 ml/hour. […]
Gastric emptying rate was measured using the ^13C-octanoic acid breath test (11). ^13C-labeled octanoic acid was solved in the nutrient drink (0.5 mg/ml). Emptying of the stomach was assessed by analysis of the exhaled ^13CO2, after oxidation of octanoic acid in the liver. […]
2) Gastric emptying (breath test). The ratio of ^13CO2 to ^12CO2 (molar mass 45 and 44 gr/mol) in the breath samples collected was measured by isotope ratio mass spectrometry (IRMS; ABCA, Sercon, Crewe, UK). As described before (12) a ^13C recovery rate per hour (% dosage per hour) was calculated per sample taking into account that the total dosage ^13C was administered over 2 hours. […]

The subject of test [2] is healthy subjects. As to the kind of experiment: Gastric motility measured as intragastric balloon pressure (motility index, MI) after codeine or placebo. In kind it is in vivo, human. The settings on record: 60 mg codeine as syrup, single dose, n=6. The text has this:
The example explored the potential of a balloon with the optimal balloon size as determined in examples 1 and the optimal balloon material characteristics as determined in examples 2. More specifically the aim was 3-fold: • To investigate whether the nasogastric balloon catheter can be used to detect (codeine-induced) decreased gastric motility. • To investigate the correlation between gastric motility and gastric emptying changes after codeine treatment. • To investigate whether the presence of an inflated intragastric balloon influences gastric motility and emptying.
6 healthy subjects were recruited for this study. […] Subjects were asked to come to the clinic after at least 6 hours fasting, none of the subjects were taking any medication apart from contraception pills. […]
The 20 ml balloon experiments served as a control for the 200 ml balloon experiments since the effect of a 200 ml balloon on gastric motility and emptying is unknown. Gastric motility was assessed with a double lumen balloon catheter as described below by measuring the pressure in the balloon with an external pressure sensor. […]
Customized computer software (Pharmlab 5.0; AstraZeneca R&D, Mölndal, Sweden) was used to record pressure as mmHg at 1 Hz. […] The baseline was calculated as follows: […]

`COc1ccc2c3c1O[C@H]1[C@@H](O)C=C[C@H]4[C@@H](C2)N(C)CC[C@@]341` [codeine]: the “gastric half emptying time (GET½), codeine vs. placebo” value was “GET½ increased; also recorded: significant treatment effect (P<0.05); also recorded: increased GET½; also recorded: delayed gastric emptying” in test [1] and “delayed gastric emptying” in test [1] (listed as Codeine). Besides, the entries for the “gastric contractility expressed as motility index (MI), codeine vs. placebo” value in test [2] (deflated balloon (20 ml)) and in test [2] (inflated balloon (200 ml)) were “did not significantly affect MI; also recorded: no effect of treatment; also recorded: No effect of codeine on motility could be detected” and “significant effect on MI (P<0.01); also recorded: motility was always decreased; also recorded: significant treatment effect (P<0.01); also recorded: decreased MI; also recorded: significantly decreased gastric motility”, respectively.
